Data taken from patent US8778896B2, “Levoisovalerylspiramycin I, II or III, preparations, preparation methods and uses thereof” (Shenyang Tonglian Group Co., Ltd., priority 2010, dated 2014).
Converted amounts (≈) assume the structure as drawn.

Tests used:
[1] = system: streptococcus pneumoniae18; test: MIC against the infecting test organism; format: cell-based, streptococcus pneumoniae; details: read-out: MIC
staphylococcus aureus16 = test: MIC against the infecting test organism; format: cell-based, staphylococcus aureus; details: read-out: MIC
[2] = system: streptococcus pneumoniae3; test: MIC against the infecting test organism; format: cell-based, streptococcus pneumoniae; details: read-out: MIC
staphylococcus aureus76 = test: MIC against the infecting test organism; format: cell-based, staphylococcus aureus; details: read-out: MIC
[3] = Acute toxicity on mice via oral administration; details: mouse, in vivo, po, 4000 mg/kg
Method: (§1) Both mice and rats take drugs orally (levoisovalerylspiramycin I, II and III prepared in Embodiment 1)
After observing the mice and rats for two days before test, and those without abnormal conditions is carried out test. Don't give anything to eat to mice and rats overnight before test. […] In this test, feed drugs to mice and rats respectively as per 4000 mg/kg, wherein, mice follow 100 mg/ml, with intragastric administration capacity of 0.6-0.8 ml per one, while rats 173 mg/ml, with intragastric administration capacity of 0.8˜1.0 ml/50 g. Observe those taking drugs for one week for toxic reaction and death.

[4] = system: adult acute respiratory infections caused by sensitive bacteria; test: Clinical test versus Azithromycin, multi-center random double blind; format: in vivo; details: patients 18 to 65 years
Method: Adopt a multi-center, random, two blind, double simulation control test, which is carried out in 5 hospitals concurrently according to the unified clinical testing program.
1. Patients from 18 to 65 years old (men and women);
2. Sensitive acute respiratory infections caused by sensitive bacteria include acute bacterial pharyngitis, acute suppurative tonsillitis, acute tracheobronchitis, mild pneumonia and acute nasosinusitis etc;
3. Any subject shall sign an informed consent before being selected.
4. All subjects shall be contracepted in the research period and within at least 3 months upon being dosed.
1. Those with hepatic or renal insufficiency (Blood Cr>1.5 mg/dl and ALT>normal upper limit)
2. The women in pregnancy or lactation
3. Those with gastrointestinal tract diseases, who cannot take drugs orally.
4. Those who take antibacterial within one week before the selection.
According to statistics on the test results by statistics experts, the clinical efficacy (FAS) is: […]

enterococcus32 [5] = test: MIC against the infecting test organism; format: cell-based, enterococcus; details: Enterococcus, read-out: MIC
[6] = system: pyogenic streptococcus 102; test: Curative effect on mouse with abdominal infection (ED50); format: in vivo; details: Streptococcus, 102, 168 h, pyogenic streptococcus 102, challenging dose 7.8 × 10^4 CFU/0.5 ml, deaths in 7 days, Bliss, read-out: ED50
Method: (§2) Test method: preparation of infection bacterial liquid: taking out the test bacterial liquid which is kept in a refrigerator at −80[…] to room temperature for about 1 h, then inoculating streptococcus pneumonia, pyogenic streptococcus and enterococcus absorbing 0.1 ml bacterial liquid respectively to 2 ml MH broth (add 10% inactivated horse serum), and inoculating 0.1 ml bacterial liquid of staphylococcus aureus to 2 ml MH broth according to the same method above; putting it in an incubator at 37[…] to be cultivated for 18 h, to obtain original bacterial liquid; diluting the original bacterial liquid with 5% gastric mucin to make animals infected with 100% lethal bacteria, to obtain infection bacterial liquid.
(§3) The clinical route of administration of carrimycin is proposed to be oral administration, thus intragastric administration is adopted in carrimychin test. Levoisovalerylspiramycin I (obtained in Embodiment 1) and of crystalline compound of levoisovalerylspiramycin I (prepared in Embodiment 27) are fed to animals via […].
(§4) After the mice are infected, respectively feed each mouse 0.2 ml via intragastric administration at 0.5 to 6 h, and they have no adverse reaction. Observe the number of deaths in 7 days, and calculate the 50% effective dose (ED50) of each drug for the infected mouse and compare the protective effect of drugs by Bliss program.

[7] = system: pyogenic streptococcus 772; test: as above; format: in vivo; details: Streptococcus, 772, 168 h, pyogenic streptococcus 772, challenging dose 6.9 × 10^3 CFU/0.5 ml, deaths in 7 days, Bliss, read-out: ED50
Method: as §2, §3, §4

[8] = system: pyogenic streptococcus 119; test: as above; format: in vivo; details: Streptococcus, 119, 168 h, pyogenic streptococcus 119, challenging dose 4.9 × 10^4 CFU/0.5 ml, deaths in 7 days, Bliss, read-out: ED50
Method: as §2, §3, §4

[9] = system: hemophilus influenzae (37); test: Clinical isolates, agar double dilution method; format: cell-based; details: 37 clinical isolates of hemophilus influenzae; for MIC50 / MIC90: Haemophilus influenzae; for MIC50: read-out: MIC50; for MIC90: read-out: MIC90
[10] = system: pyogenic streptococcus 772; test: MIC against the infecting test organism; format: cell-based; details: read-out: MIC
staphylococcus aureus12 = test: MIC against the infecting test organism; format: cell-based, staphylococcus aureus; details: read-out: MIC
[11] = system: streptococcus pneumoniae3; test: Curative effect on mouse with abdominal infection (ED50); format: in vivo, streptococcus pneumoniae; details: Streptococcus, 168 h, streptococcus pneumoniae3, challenging dose 6.4 × 10^4 CFU/0.5 ml, deaths in 7 days, Bliss, read-out: ED50
Method: as §2, §3, §4

[12] = system: streptococcus pneumoniae57; test: as above; format: in vivo, streptococcus pneumoniae; details: Streptococcus, 168 h, streptococcus pneumoniae57, challenging dose 8.8 × 10^4 CFU/0.5 ml, deaths in 7 days, Bliss, read-out: ED50
Method: as §2, §3, §4

[13] = system: streptococcus pneumoniae18; test: as above; format: in vivo, streptococcus pneumoniae; details: Streptococcus, 168 h, streptococcus pneumoniae18, challenging dose 9.6 × 10^4 CFU/0.5 ml, deaths in 7 days, Bliss, read-out: ED50
Method: as §2, §3, §4

[14] = system: pyogenic streptococcus 119; test: MIC against the infecting test organism; format: cell-based; details: read-out: MIC
[15] = Acute toxicity on rats via oral administration; details: rat, in vivo, po, 4500 mg/kg
Method: as §1
After observing the mice and rats for two days before test, and those without abnormal conditions is carried out test. Don't give anything to eat to mice and rats overnight before test. […] […] Observe those taking drugs for one week for toxic reaction and death.

[16] = system: pyogenic streptococcus 102; test: MIC against the infecting test organism; format: cell-based; details: read-out: MIC
enterococcus32 [17] = test: Curative effect on mouse with abdominal infection (ED50); format: in vivo, enterococcus; details: Enterococcus, 168 h, enterococcus32, challenging dose 5.4 × 10^4 CFU/0.5 ml, deaths in 7 days, Bliss, read-out: ED50
Method: as §2, §3, §4

[18] = system: streptococcus pneumoniae57; test: MIC against the infecting test organism; format: cell-based, streptococcus pneumoniae; details: read-out: MIC
enterococcus (106) = test: Clinical isolates, agar double dilution method; format: cell-based; details: 106 clinical isolates of enterococcus; for MIC50: read-out: MIC50; for MIC90: read-out: MIC90

`CCC(=O)OC1CC(=O)OC(C)C/C=C/C=C/C(OC2CCC(N(C)C)C(C)O2)C(C)CC(CC=O)C(OC2OC(C)C(OC3CC(C)(O)C(OC(=O)CC(C)C)C(C)O3)C(N(C)C)C2O)C1OC` (stereo not drawn) [Levoisovalerylspiramycin III, levoisovalerylspiramycin III] showed an MIC [1] of 0.03 µg/mL (≈ 0.0305 µM), an MIC (staphylococcus aureus16) of 0.25 µg/mL (≈ 0.254 µM) and an MIC [2] of 0.12 µg/mL (≈ 0.122 µM). The MIC (staphylococcus aureus76) was 0.25 µg/mL (≈ 0.254 µM), the LD50 at 1 week [3] was greater than 4000 mg/kg and the “Mortality rate (%)” value ([3]; 1 week) was 35%. The mortality ([3]; 1 week) was 7, the adverse reaction [4] was 2.5% and the clearance of pathogens [4] was 97.56%. The “clinical efficacy (FAS)” value [4] was 92.30%, the MIC (enterococcus32 [5]) was 0.25 µg/mL (≈ 0.254 µM) and the ED50 [6] was 63.2 mg/kg. It also gave an ED50 [7] of 24.6 mg/kg, an ED50 [8] of 52.8 mg/kg and an MIC range [9] of 0.03 to 32 µg/mL. It also gave an MIC50 [9] of 0.12 µg/mL (≈ 0.122 µM), an MIC90 [9] of 1 µg/mL (≈ 1.02 µM) and an MIC [10] of 0.06 µg/mL (≈ 0.061 µM). For the same compound, the MIC (staphylococcus aureus12) was 1 µg/mL (≈ 1.02 µM), the ED50 [11] was 8.99 mg/kg and the ED50 [12] was 13.1 mg/kg. It also gave an ED50 [13] of 8.98 mg/kg, an MIC [14] of 0.12 µg/mL (≈ 0.122 µM) and an LD50 at 1 week [15] greater than 4500 mg/kg. For the same compound, the “Mortality rate (%)” value ([15]; 1 week) was 15%, the mortality ([15]; 1 week) was 3 and the MIC [16] was 0.12 µg/mL (≈ 0.122 µM). The ED50 (enterococcus32 [17]) was 70.2 mg/kg, the MIC [18] was 0.06 µg/mL (≈ 0.061 µM) and the MIC50 (enterococcus (106)) was 2 µg/mL (≈ 2.03 µM). For the same compound, the MIC90 (enterococcus (106)) was 64 µg/mL (≈ 65.1 µM).
`CC[C@H]1OC(=O)[C@H](C)[C@@H](O[C@H]2C[C@@](C)(OC)[C@@H](O)[C@H](C)O2)[C@H](C)[C@@H](O[C@@H]2O[C@H](C)C[C@H](N(C)C)[C@H]2O)[C@](C)(O)C[C@@H](C)CN(C)[C@H](C)[C@@H](O)[C@]1(C)O` [azithromycin, reference compound] gave an MIC [1] of 0.06 µg/mL (≈ 0.0801 µM), an MIC (staphylococcus aureus16) of 0.5 µg/mL (≈ 0.668 µM) and an MIC [2] of 0.12 µg/mL (≈ 0.16 µM). It also gave an MIC (staphylococcus aureus76) of 1 µg/mL (≈ 1.34 µM), an adverse reaction [4] of 7.6% and a clearance of pathogens [4] of 92.86%. The “clinical efficacy (FAS)” value [4] was 89.61%, the MIC (enterococcus32 [5]) was 1 µg/mL (≈ 1.34 µM) and the ED50 [6] was 159 mg/kg. The ED50 [7] was 46.9 mg/kg, the ED50 [8] was 68.5 mg/kg and the MIC50 [9] was 0.25 µg/mL (≈ 0.334 µM). For the same compound, the MIC90 [9] was 2 µg/mL (≈ 2.67 µM), the MIC [10] was 0.25 µg/mL (≈ 0.334 µM) and the MIC (staphylococcus aureus12) was 2 µg/mL (≈ 2.67 µM). The ED50 [11] was 18.3 mg/kg, the ED50 [12] was 19 mg/kg and the ED50 [13] was 14.9 mg/kg. The MIC [14] was 0.25 µg/mL (≈ 0.334 µM), the MIC [16] was 0.5 µg/mL (≈ 0.668 µM) and the ED50 (enterococcus32 [17]) was 147 mg/kg. The MIC [18] was 0.12 µg/mL (≈ 0.16 µM), the MIC50 (enterococcus (106)) was 8 µg/mL (≈ 10.7 µM) and the MIC90 (enterococcus (106)) was greater than 64 µg/mL.
Compound `CC[C@H]1OC(=O)[C@H](C)[C@@H](O[C@H]2C[C@@](C)(OC)[C@@H](O)[C@H](C)O2)[C@H](C)[C@@H](O[C@@H]2O[C@H](C)C[C@H](N(C)C)[C@H]2O)[C@](C)(O)C[C@@H](C)C(=O)[C@H](C)[C@@H](O)[C@]1(C)O` [erythrocin, reference compound] has an MIC [1] of 0.06 µg/mL (≈ 0.0818 µM), an MIC (staphylococcus aureus16) of 1 µg/mL (≈ 1.36 µM) and an MIC [2] of 1 µg/mL (≈ 1.36 µM). The MIC (staphylococcus aureus76) was 1 µg/mL (≈ 1.36 µM), the MIC (enterococcus32 [5]) was 2 µg/mL (≈ 2.73 µM) and the ED50 [6] was 361 mg/kg. It also gave an ED50 [7] of 101 mg/kg, an ED50 [8] of 234 mg/kg and an MIC50 [9] of 0.06 µg/mL (≈ 0.0818 µM). The MIC90 [9] was 32 µg/mL (≈ 43.6 µM), the MIC [10] was 0.5 µg/mL (≈ 0.681 µM) and the ED50 [11] was 85.1 mg/kg. It also gave an ED50 [12] of 102 mg/kg, an ED50 [13] of 57.1 mg/kg and an MIC [14] of 0.5 µg/mL (≈ 0.681 µM). The MIC [16] was 0.5 µg/mL (≈ 0.681 µM), the ED50 (enterococcus32 [17]) was 175 mg/kg and the MIC [18] was 0.25 µg/mL (≈ 0.341 µM). For the same compound, the MIC50 (enterococcus (106)) was 4 µg/mL (≈ 5.45 µM) and the MIC90 (enterococcus (106)) was greater than 64 µg/mL.
